Assay results taken from the NIST ThermoML archive (doi:10.1016/j.jct.2006.09.007).

Experiments:
[1] = xn = mol fraction of the nth substance listed; settings: 101.3 kPa, Liquid
[2] = molar heat capacity at constant pressure; settings: 298.15 K; 101.33 kPa; Liquid; Flow calorimetry
[3] = 101.3 kPa, Liquid

Cc1cccc(C)c1 [1,3-dimethylbenzene] + N#Cc1ccccc1
[1], x2 = 0
Settings | mass density [kg/m3]
298.15 K | 859.68
308.15 K | 850.01

CC(C)c1ccccc1 [isopropylbenzene]
Settings | molar heat capacity at constant pressure [J/K/mol]
[2] | 214.75

[3]
Settings | mass density [kg/m3]
298.15 K | 857.41
308.15 K | 848.26

CCc1ccccc1 [ethylbenzene]
Settings | molar heat capacity at constant pressure [J/K/mol]
[2] | 185.44

[3]
Settings | mass density [kg/m3]
298.15 K | 862.41
308.15 K | 852.72

N#Cc1ccccc1 [benzonitrile] + Cc1cc(C)cc(C)c1
[1]
Settings | excess molar heat capacity, 298.15 K [J/K/mol] | mass density, 298.15 K [kg/m3] | mass density, 308.15 K [kg/m3]
x1 = 0.073 | – | 869.06 | 860.02
x1 = 0.0754 | 0.726 | – | –
x1 = 0.1029 | 0.966 | – | –
x1 = 0.1412 | – | 876.92 | 867.88
x1 = 0.1917 | – | 882.87 | 873.78
x1 = 0.2104 | 1.56 | – | –
x1 = 0.283 | 1.84 | – | –
x1 = 0.2955 | – | 895.5 | 886.4
x1 = 0.3596 | – | 903.59 | 894.43
x1 = 0.381 | 2.016 | – | –
x1 = 0.4531 | – | 915.84 | 906.58
x1 = 0.4702 | 1.987 | – | –
x1 = 0.5128 | – | 923.9 | 914.75
x1 = 0.5479 | 1.864 | – | –
x1 = 0.6098 | – | 937.51 | 928.28
x1 = 0.6441 | 1.563 | – | –
x1 = 0.7005 | – | 950.89 | 941.57
x1 = 0.712 | 1.3 | – | –
x1 = 0.7895 | – | 964.64 | 955.31
x1 = 0.8092 | 0.861 | – | –
x1 = 0.879 | – | 979.23 | 969.79
x1 = 0.9041 | 0.428 | – | –
x1 = 0.9501 | 0.177 | – | –
x1 = 0.9536 | – | 991.98 | 982.49
x1 = 1 | – | 1000.25 | 990.67

CC(C)c1ccccc1 [isopropylbenzene] + N#Cc1ccccc1
[1], 298.15 K, Flow calorimetry
Settings | excess molar heat capacity [J/K/mol]
x2 = 0.0812 | 1.087
x2 = 0.1147 | 1.448
x2 = 0.2052 | 2.23
x2 = 0.3131 | 2.763
x2 = 0.3691 | 2.935
x2 = 0.4488 | 2.929
x2 = 0.5194 | 2.919
x2 = 0.6256 | 2.511
x2 = 0.6997 | 2.226
x2 = 0.8003 | 1.545
x2 = 0.9038 | 0.825
x2 = 0.9407 | 0.527

mass density [kg/m3], [1]
Settings | 298.15 K | 308.15 K
x2 = 0 | 857.41 | 848.26
x2 = 0.0581 | 864.33 | 855.15
x2 = 0.0865 | 867.75 | 858.59
x2 = 0.2036 | 882.15 | 872.93
x2 = 0.2835 | 892.28 | 883.09
x2 = 0.3445 | 900.22 | 891.02
x2 = 0.3887 | 906.07 | 896.85
x2 = 0.4445 | 913.59 | 904.41
x2 = 0.5627 | 930.2 | 920.94
x2 = 0.6557 | 943.85 | 934.41
x2 = 0.7271 | 954.72 | 945.3
x2 = 0.8102 | 967.92 | 958.51
x2 = 0.9017 | 983.11 | 973.75

Cc1ccccc1C [1,2-dimethylbenzene]
Settings | molar heat capacity at constant pressure [J/K/mol]
[2] | 187.28

[3]
Settings | mass density [kg/m3]
298.15 K | 875.55
308.15 K | 866.29

Cc1ccc(C)cc1 [1,4-dimethylbenzene]
Settings | molar heat capacity at constant pressure [J/K/mol]
[2] | 181.73

[3]
Settings | mass density [kg/m3]
298.15 K | 856.48
308.15 K | 846.98

Cc1cc(C)cc(C)c1 [1,3,5-trimethylbenzene] + N#Cc1ccccc1
[1], x2 = 0
Settings | mass density [kg/m3]
298.15 K | 860.9
308.15 K | 851.88

Cc1ccc(C)c(C)c1 [1,2,4-trimethylbenzene] + N#Cc1ccccc1
[1], x2 = 0
Settings | mass density [kg/m3]
298.15 K | 871.56
308.15 K | 862.53

Cc1ccc(C)cc1 [1,4-dimethylbenzene] + N#Cc1ccccc1
[1], x2 = 0
Settings | mass density [kg/m3]
298.15 K | 856.48
308.15 K | 846.98

N#Cc1ccccc1 [benzonitrile] + COc1ccccc1
mass density [kg/m3], [1]
Settings | 298.15 K | 308.15 K
x1 = 0.0168 | 989.23 | 979.02
x1 = 0.0762 | 990.08 | 979.91
x1 = 0.1199 | 990.69 | 980.57
x1 = 0.2462 | 992.32 | 982.29
x1 = 0.3042 | 993.03 | 983.06
x1 = 0.3614 | 993.71 | 983.73
x1 = 0.5068 | 995.35 | 985.48
x1 = 0.5823 | 996.16 | 986.31
x1 = 0.6772 | 997.14 | 987.35
x1 = 0.7832 | 998.21 | 988.45
x1 = 0.9105 | 999.44 | 989.77
x1 = 1 | 1000.25 | 990.67

CCc1ccccc1 [ethylbenzene] + N#Cc1ccccc1
[1], x2 = 0
Settings | mass density [kg/m3]
298.15 K | 862.41
308.15 K | 852.72

COc1ccccc1 [anisole]
Settings | molar heat capacity at constant pressure [J/K/mol]
[2] | 191.54

[3]
Settings | mass density [kg/m3]
298.15 K | 988.98
308.15 K | 978.7

N#Cc1ccccc1 [benzonitrile] + CCc1ccccc1
[1]
Settings | excess molar heat capacity, 298.15 K [J/K/mol] | mass density, 298.15 K [kg/m3] | mass density, 308.15 K [kg/m3]
x1 = 0.0616 | – | 870.36 | 860.67
x1 = 0.0673 | – | 871.08 | 861.35
x1 = 0.0699 | 0.77 | – | –
x1 = 0.1221 | 1.239 | – | –
x1 = 0.1384 | – | 880.39 | 870.62
x1 = 0.219 | 1.824 | – | –
x1 = 0.2367 | – | 893.17 | 883.4
x1 = 0.3021 | 2.096 | – | –
x1 = 0.3478 | 2.184 | – | –
x1 = 0.3726 | – | 911.19 | 901.43
x1 = 0.4424 | 2.181 | – | –
x1 = 0.4563 | – | 922.38 | 912.65
x1 = 0.4991 | – | 928.14 | 918.47
x1 = 0.5151 | 2.098 | – | –
x1 = 0.5903 | – | 940.59 | 931
x1 = 0.5925 | 1.917 | – | –
x1 = 0.6379 | 1.786 | – | –
x1 = 0.6935 | – | 955 | 945.46
x1 = 0.7404 | 1.395 | – | –
x1 = 0.7801 | – | 967.39 | 957.85
x1 = 0.8033 | 1.119 | – | –
x1 = 0.8857 | 0.666 | – | –
x1 = 0.8862 | – | 983.01 | 973.45
x1 = 0.947 | 0.33 | – | –
x1 = 0.9502 | – | 992.6 | 983.07
x1 = 1 | – | 1000.25 | 990.67
